Results on five compounds are retold here after patent US12491246B2, “Combination therapy of arms and natural killer cells” (KLEO PHARMACEUTICALS, INC., priority 2018, dated 2025).

pEC50: −log10 of the molar value. Values joined by “and” are separate entries in the source; they are usually repeats but may differ in a detail not shown here. Equal entries are not always repeated.

For one data set, the system named is LNCap cells. In words: Ternary complex formation of ARM, antibody and target cells (flow cytometry). The class given is cell-based, human. The note with it: 20 ug/ml rabbit anti-DNP Alexa 488, 4 C 30 min, mean fluorescence. The procedure:
Various technologies are suitable for assessing complex formation. One example such assay was described below. Those skilled in the art appreciate that one or more parameters and/or conditions may be adjusted and other assays/reagents/conditions, etc., can also be utilized.
Adherent cells (LNCap, CRL-1740, for example results below) were harvested using Accumax (Sigma-Aldrich A7089-100 ml). Compounds were diluted in DMSO (MP 191418) to 1000× the starting concentration used in the assay into a 96 well polypropylene plate (Corning 3357). They were then serially diluted in ½ log increments to generate 8-12 concentrations in DMSO (assay dependent). These DMSO stocks were then step diluted 1/10 into PBS (VWR Cat. #20012043). The step diluted compound range was then added into the polypropylene assay plate 1/100 the volume of the assay volume. The cells used for the assay were counted and centrifuged and resuspended at a concentration of 100,000 cells per 200 ul in Flow buffer: 1% BSA (American Bio AB01088-00100); 0.5 mM EDTA (VWR 45001-122); PBS (VWR Cat. #20012043) with 20 ug/ml rabbit anti-DNP Alexa 488 (Thermo Fisher Scientific A11097). The cells were then added into the polypropylene plate with the step diluted compounds and incubated at 4 C 30 min. At the end of the incubation, the cells were centrifuged and washed 2× with Flow buffer containing 0.5% Tween 20 (BP337-500). Samples were analyzed on a BD FacsCelesta. Mean fluorescence was analyzed using Graphpad Prism and curves were fit using log (inhibitor) vs. response-Variable slope (four parameters).
On the technique in general: A flow cytometer gives signals particle by particle.

The subject of data set [1] is LNCaP target cells and reporter cells with CD16a-158V/V variant. Briefly: ADCC reporter assay. The class given is cell-based, human. The procedure:
In one example, LNCaP cells (human prostate cancer derived, ATCC: CRL-1740) were detached and re-suspended in 1% BSA in RPMI. Cell solution was filtered to remove cell aggregate (polystyrene tube with cell strainer, Corning: 352235) before being counted (Life Technologies Countless II cell counter) and plated (10,000 cells in 25 μL/well; Corning plates: 3917). The plated was centrifuged (5 min, 300×g) and the compound solutions (25 μL/well) were added immediately after. The antibody solutions (25 μL/well, IgG1 FC-Thermo Fisher: 10702HNAH5; Dintrophenyl-KLH polyclonal antibody-Thermo Fisher: A-6430) were added following a 45 min incubation at 37° C. The plate was then incubated with the antibody solution for 45 min to allow for cell-ARM-antibody ternary complex formation before the addition of the effector cells (60 K in 25 μL/well, ADCC reporter cells—Promega kit: G7018). The plate was centrifuged (5 min, 300×g) and effector cells were incubated for an 5 h at 37° C. Following the induction period the plate was equilibrated to 25° C. followed the addition of the luciferase substrate (75 μL/well, 1 vial in 10 mL of Bio-Glo assay buffer, Promega kit: G7018). The plate was then centrifuged (5 min, 300×g) and the luminescence was measured (Biotek Synergy H1 microplate reader).
An example set of data are present below:
LNCaP target cells and reporter cells with CD16a-158V/V variant
(In a reporter assay the amount or activity of a reporter protein is the signal.)

Another data set deals with CIML NK cells. Briefly: CIML NK cell fratricide assay. Format: cell-based. The following applies: CIML NK cells; 3 μg/ml or 20.1 nM; 2 hours post-incubation. As for the experimental part:
(§1) PBMC isolation: Leukopheresis product from a donor with body mass index (BMI) between 19-25, under 50 years old, not on immuno-suppressive drugs for at least 2 weeks with an estimated PBMC cell count of >10^10 was obtained from Key Biologics (subject ID 20982200) and transported at ambient temperature. Leukopheresis bag was wiped down with 70% EtOH, a small slit was made and contents were pipetted off into tubes. Leukopak contents were diluted 1:1 with PBS without Ca++/Mg++ and 20 ml of this mixture was layered on top of 25 mL of Ficoll. Tubes were then centrifuged at 400 g for 30 minutes without brakes. PBMCs were harvested from the interface into separate tubes, and tubes were filled to 50 mL with PBS. Cells were centrifuged for 10 min at 120 g to get rid of platelets. Supernatant was poured off and cells were re-suspended in RPMI 10% FBS at a concentration of 7-10×10^6 cells/ml. Cells were cultured overnight at 37C in a 5% CO2 atmosphere until NK cell isolation.
NK cell isolation: PBMC were centrifuged at 400 g for 10 min and re-suspended in EasySep buffer. NK cells were isolated using NK cell isolation kits from STEMCELL Technologies according to kit's manufacturers' instructions. NK cell purity and phenotype was assessed by trypan Blue and flow cytometry using the following antibody cocktail: anti-CD56PE, CD3 APC, and viability was determined using staining with Trypan Blue exclusion dye, and by flow cytometry using Near Infra-Red Fixable viability dye (Thermo Fisher).
CIML NK cell generation: Isolated NK cells were re-suspended at 2×10^6 cells/ml in XVIVO 10% Human Serum and the following concentrations IL-15 (50 ng/ml), IL-12 (10 ng/ml), IL-18(50 ng/ml) for 12 to 18 hrs. […]
(§2) NK cell fratricide (death directed at NK cells in the same culture) was assessed by flow cytometry following a 2 hr incubation with the CD38 ARM at indicated concentrations in the presence or absence of 500 μg/ml intravenous immune globulin (IVIG). […]

A further data set concerns non-CIML NK cells. In words: NK cell fratricide assay, non-CIML control NK cells. The following applies: daratumumab treatment, 2 hr. The class given is cell-based. As for the experimental part:
as §1
NK cell isolation: PBMC were centrifuged at 400 g for 10 min and re-suspended in EasySep buffer. NK cells were isolated using NK cell isolation kits from STEMCELL Technologies according to kit's manufacturers' instructions. NK cell purity and phenotype was assessed by trypan Blue and flow cytometry using the following antibody cocktail: anti-CD56PE, CD3 APC, and viability was determined using staining with Trypan Blue exclusion dye, and by flow cytometry using Near Infra-Red Fixable viability dye (Thermo Fisher). […]
Purity and viability of NK cells and CIML NK cells: Among other things, the present disclosure provides highly pure and viable NK cell populations following isolation from PBMC. […] After an overnight incubation, purity and viability were assessed in the cultured cell populations. […]
as §2

What is called pEC50 is the EC50 on a negative log10 scale, so that one unit is a factor of ten. Read a high pEC50 as a small EC50. With `CC(C)C[C@@H]1NC(=O)[C@H](Cc2c[nH]cn2)NC(=O)[C@H](Cc2c[nH]c3ccccc23)NC(=O)[C@H](C)NC(=O)[C@@H](NC(=O)[C@H](CC(=O)O)NC(=O)CCOCCOCCOCCOCCOCCOCCOCCOCc2cn(CCCC[C@H](NC(=O)N[C@@H](CCC(=O)O)C(=O)O)C(=O)O)nn2)CSSC[C@@H](C(=O)N[C@H](C(=O)O)[C@@H](C)O)NC(=O)[C@H](Cc2c[nH]c3ccccc23)NC(=O)[C@H](C(C)C)NC(=O)[C@H](CC(C)C)NC(=O)[C@H](CCC(=O)O)NC(=O)CNC1=O` [Compound I-11], the pEC50 in the data set with LNCap cells is 8.18. In addition, the “Luminescence (background substracted)” value in data set [1] (I-11 3.2 nM, IgG1 FC (20 nM)) is 165.5 and 123.5; in data set [1] (I-11 3.2 nM, IgG1 FC (200 nM)) it was 172 and 189; in data set [1] (I-11 3.2 nM, anti-DNP (20 ug/mL)), 128.5 and 86.5; in data set [1] (I-11 16 nM, IgG1 FC (20 nM)), 667.5 and 621.5; in data set [1] (I-11 16 nM, IgG1 FC (200 nM)), 1216 and 1040; in data set [1] (I-11 16 nM, anti-DNP (20 ug/mL)), 934.5 and 855.5. The “Luminescence (background substracted)” value was 1251.5 and 1037.5 in data set [1] (I-11 80 nM, IgG1 FC (20 nM)); 1708 and 1823 in data set [1] (I-11 80 nM, IgG1 FC (200 nM)); 1635.5 and 1605.5 in data set [1] (I-11 80 nM, anti-DNP (20 ug/mL)); 797.5 and 679.5 in data set [1] (I-11 400 nM, IgG1 FC (20 nM)); 1827 and 1494 in data set [1] (I-11 400 nM, IgG1 FC (200 nM)); 1842.5 and 1696.5 in data set [1] (I-11 400 nM, anti-DNP (20 ug/mL)). Also, the “Luminescence (background substracted)” value in data set [1] (I-11 2000 nM, IgG1 FC (20 nM)) was 151.5 and 163.5; in data set [1] (I-11 2000 nM, IgG1 FC (200 nM)) it was 1372 and 1118; in data set [1] (I-11 2000 nM, anti-DNP (20 ug/mL)), 1374.5 and 1253.5.
Regarding `CC(C)C[C@@H]1NC(=O)[C@H](Cc2c[nH]cn2)NC(=O)[C@H](Cc2c[nH]c3ccccc23)NC(=O)[C@H](C)NC(=O)[C@@H](NC(=O)[C@@H](N)CC(=O)O)CSSC[C@@H](C(=O)N[C@H](C(=O)NCCOCCOCCOCCOCCOCCOCCOCCOCc2cn(CCCC[C@H](NC(=O)N[C@@H](CCC(=O)O)C(=O)O)C(=O)O)nn2)[C@@H](C)O)NC(=O)[C@H](Cc2c[nH]c3ccccc23)NC(=O)[C@H](C(C)C)NC(=O)[C@H](CC(C)C)NC(=O)[C@H](CCC(=O)O)NC(=O)CNC1=O` [Compound I-16], in the data set with LNCap cells, the negative-log EC50 (pEC50) was 8.13.
Same read-out and setting: as for `CC(C)C[C@@H]1NC(=O)[C@H](Cc2c[nH]cn2)NC(=O)[C@H](Cc2c[nH]c3ccccc23)NC(=O)[C@H](C)NC(=O)[C@@H](NC(=O)[C@H](CC(=O)O)NC(=O)CCOCCOCCOCCOCCOCCOCc2cn(CCCC[C@H](NC(=O)N[C@@H](CCC(=O)O)C(=O)O)C(=O)O)nn2)CSSC[C@@H](C(=O)N[C@H](C(=O)O)[C@@H](C)O)NC(=O)[C@H](Cc2c[nH]c3ccccc23)NC(=O)[C@H](C(C)C)NC(=O)[C@H](CC(C)C)NC(=O)[C@H](CCC(=O)O)NC(=O)CNC1=O` [Compound I-33], the figure is 8.52; as for `CC(C)C[C@@H]1NC(=O)[C@H](Cc2c[nH]cn2)NC(=O)[C@H](Cc2c[nH]c3ccccc23)NC(=O)[C@H](C)NC(=O)[C@@H](NC(=O)[C@H](CC(=O)O)NC(=O)CCOCCOCCOCCOCCOCCOCCOCCOCc2cn(CCCC[C@H](NC(=O)N[C@@H](CCC(=O)O)C(=O)O)C(=O)O)nn2)CSSC[C@@H](C(=O)N[C@H](C(=O)O)[C@@H](C)O)NC(=O)[C@H](Cc2c[nH]c3ccccc23)NC(=O)[C@H](C(C)C)NC(=O)[C@H](CC(C)C)NC(=O)[C@H](CCC(=O)O)NC(=O)CNC1=O` [Compound I-34], 8.06.
For the compound daratumumab [reference compound], the “increase in the percentage of dead NK cells” value in the data set with CIML NK cells amounted to 4%. Moreover, in the data set with non-CIML NK cells, the “total increase in dead NK cells over DMSO treated control” value was found to be 5.6%.
